Structures can show the parent of a compound that is named as a salt. Where two headings read alike, the source gives them in different places.
Columns and labels:
[1] = Method A: photostability in a non-hydrated state (solid state), dried films under LED light; format: physicochemical
Method: Fifty microlitres of each formulation was pipetted into 12 wells of a 96-well clear-bottom black microplate (Thomas Scientific, Swedesboro, N.J.) and dried into thin films using a dehydrator (Gourmia GFD1680) at a temperature of 45° C. for 3 h. At the beginning of the experiment, the microplate was placed under a Heliospectra RX30 LED light array (Heliospectra, San […], Calif.). The LED array was adjusted such that the microplates received on average 1300 μmol/m^2/s of light intensity. The microplate was tightly covered with aluminum foil and at select intervals peeled back to irradiate films with either 0 h, 24 h, 48 h or 72 h of light. […] An absorbance spectral scan was conducted on the microplate (350-750 nm) using a plate reader (Spectramax M2E, Molecular Devices, San Jose, Calif.) and the peak intensity was monitored at 24 h, 48 h and/or 72 h timepoints and compared with the corresponding 0 h timepoint to determine the degree of photodegradation. The % photosensitizer remaining after irradiation was calculated using the following equation: [formula] where Abst is the absorbance peak of the sample receiving t hours of light exposure; Abs0 is the absorbance peak of the sample receiving no light exposure. All data is expressed as mean±standard deviation.

[2] = Method B: photostability in solution (liquid state) under LED light; format: physicochemical
Method: Fifty microlitres of each formulation was pipetted into 12 wells of a 96-well clear-bottom black microplate (Thomas Scientific, Swedesboro, N.J.), followed by the addition of 50 μL dH2O. The sample was sealed with a microplate clear adhesive film to minimize water evaporation. At the beginning of experiment, the microplate was placed under a Heliospectra RX30 LED light array (Heliospectra, San […], Calif.). The LED array was adjusted such that the microplates received on average 1300 μmol/m^2/s of light intensity. […] The % photosensitizer remaining after irradiation was calculated using the following equation: [formula] where Abst is the absorbance peak of the sample receiving t hours of light exposure; Abs0 is the absorbance peak of the sample receiving no light exposure. All data is expressed as mean±standard deviation.

[3] = system: Sclerotinia homoeocarpa; experiment: Broth protocol: control of dollar spot fungus with modified chlorins; format: cell-based; conditions: for inhibition at 10 µM / inhibition at 100 µM: Clarireedia homoeocarpa; for Inhibition, % (Dark) / Inhibition, % (Light): Broth data; for Inhibition, % (Light): light 1 hour, about 1000 μmol/m2/s PAR
Method: Broth protocol: control of dollar spot fungus (Sclerotinia homoeocarpa) with modified chlorins was assessed. Treatments were prepared in Phosphate Buffered Saline (PBS) in 24 well plates (in duplicates for light vs. dark incubation) at desired concentrations. Then, a 5 mm diameter plug of a Sclerotinia homoeocarpa isolate (3 isolates total tested) was inoculated into the PBS and incubated at 21° C. in the dark for 2 hours. After 2 hours, one of the 24 well plates (with isolates in triplicate) was left in the dark and one 24 well plate was placed under illumination for 1 hour (all at 21° C.). Following illumination, fungal plugs were removed from PBS, blotted dry on sterile filter paper and transferred to non-amended Potato Dextrose Agar (PDA). Radial growth of the fungus was monitored daily until the growth of S. homoeocarpa reached the edge of the Petri-dish. Illumination was provided by LED lights emitting about 1000 μmol/m2/s photosynthetically active radiation (PAR).

[4] = Thermal stability of MgChln, 2 weeks at 54° C.; format: physicochemical; conditions: in dH2O, wrapped in aluminum foil, mean ± SD
Method: These samples were wrapped in aluminum foil and stored in a 54° C. oven for a period of 2 weeks. After the 2-week period, the samples were taken out of the 54° C. oven or -20° C. freezer and assayed using the UV-Visible plate reader (Spectramax M2E, Molecular Devices, San Jose, Calif.) with 12 technical replicates per sample. The degradation of […] as a result of storage at elevated temperature was determined by calculating the % photosensitizer remaining using the following equation: [formula] where Abst is the absorbance peak of the sample after incubation for 2 weeks at 54° C.; Abs0 is the absorbance peak of the sample at the start of experiment without being stored at 54° C. All data is expressed as mean±standard deviation.

[5] = system: Pseudomonas syringae v. tabacii; experiment: Inhibition of P. syringae in host plant N. benthamiana by film-forming compositions; format: in vivo; conditions: host Nicotiana benthamiana, PVOH 89 kDa, >99% hydrolysis
Method: Two days prior to inoculation, chemical treatments were applied to N. benthamiana plants at the 5-6 leaf stage until run off using a handheld spray bottle delivering a fine spray. Plants sprayed with water were used for Control. Immediately after treatment, plants were randomly placed on a shelf and exposed to LED lights emitting approximately 450 μmol/m2/s photo-synthetically active radiation (PAR) for a 12 h light/12 h dark photoperiod. For inoculation, Pst from a glycerol stock was cultured on Tryptic Soy Agar (TSA) and incubated overnight at 30° C. Bacterial cells were collected from the overnight culture, suspended in de-ionized water and diluted to 1×10^8 CFU/ml followed by the addition of 0.02% (v/v) Silwet L-77. Inoculum was then applied to plants until runoff and the plants covered with transparent plastic domes to maintain 100% relative humidity.
Inoculated plants were randomly placed on a shelf in the Growth room which was maintained at 24° C., and were exposed to a combination of fluorescent and LED lights emitting approximately 250 μmol/m^2/s PAR for an 16 h light/8 h dark photoperiod for 7 days. Entire plants were assessed for disease severity using rating scale of 0-100%. Disease symptoms included yellow lesions, discoloration on foliage, leaf deformation and stunted growth. Four replications per treatment were used in the experiment.

[6] = system: Colletotrichum orbiculare ATC20767 (Cgm); experiment: Control of Colletotrichum orbiculare on Nicotiana benthamiana, film-forming formulations applied 48 h before inoculation; format: in vivo; conditions: host Nicotiana benthamiana, PVOH 89 kDa, >99% hydrolysis
Method: Control of the fungal plant pathogen Colletotrichum orbiculare ATC20767 (Cgm) on the host plant Nicotiana benthamiana following treatment with formulations containing Magnesium chlorophyllin, sodium salt with hydrogel polymer, polyvinylalcohol 89 kDa (99%+hydrolysis) and phenolic antioxidant vanillin were assessed. Treatments were applied to N. benthamiana plants approximately 48 h prior to inoculation to simulate photodegradation on a leaf surface. Subsequently, with a spore suspension of Cgm was applied to the leaves. Plants were then exposed to light for a 24-hour period followed by dark incubation until disease symptoms were evident on the water-treated control plants. Once disease symptoms were evident, lesions were counted, and leaf area measured in order to determine the number of lesions/cm^2 leaf area. Four replicate plants were used per treatment and plants were randomized under the light source. […]
Control of the fungal plant pathogen Colletotrichum orbiculare ATC20767 (Cgm) on the host plant Nicotiana benthamiana following treatment with formulations containing Magnesium chlorophyllin, sodium salt with hydrogel polymer, polyvinylalcohol 89 kDa (99%+hydrolysis) and phenolic antioxidant tannic acid were assessed. […] Once disease symptoms were evident, lesions were counted, and leaf area measured in order to determine the number of lesions/cm^2 leaf area. […]

[7] = system: Sclerotinia homoeocarpa; experiment: Agar protocol: control of dollar spot fungus with modified Ce6; format: cell-based; conditions: Agar data, 10 uM
Method: Agar protocol: control of dollar spot fungus (Sclerotinia homoeocarpa) with modified Ce6 was assessed. Treatments were amended into Potato Dextrose Agar (PDA) at desired concentrations. Then, a 5 mm diameter plug of a Sclerotinia homoeocarpa isolate (3 isolates total tested) was inoculated into the center of the amended Petri-dish and incubated at 21° C. in the dark for 24 hours. After 24 hours, one set of Petri-dishes (in triplicate) was left in the dark and one set was placed under illumination for the remainder of the experiment (all at 21° C.). Radial growth of the fungus was monitored daily until the growth of S. homoeocarpa on non-amended PDA reaches the edge of the Petri-dish. Illumination was provided by fluorescent lights emitting about 180 μmol/m2/s photosynthetically active radiation (PAR).

[8] = system: Pseudomonas syringae pv. tabaci; experiment: In vitro photodynamic inactivation of Pseudomonas syringae pv. tabaci with modified Ce6; format: cell-based
Method: Experiments were conducted to evaluate control of the gram-negative bacterial plant pathogen Pseudomonas syringae pv. tabaci with modified Ce6. Treatments were prepared in Phosphate Buffered Saline (PBS) in 96 well plates at desired concentrations. A bacterial suspension was inoculated into the PBS and incubated at 28° C. in the dark for 30 min. After 30 min, the 96 well plate was placed under illumination for 1 hour (at 21° C.). A separate plate prepared at the same time was kept in the dark without illumination and served as dark control. Following illumination, bacterial suspensions were serially diluted and 10 μL of each dilution was spread uniformly on Tryptic Soy Agar (TSA) plates and placed in the dark in an incubator at 28° C. for 48 hours. After 48 hours, bacterial colonies were counted and results were log transformed (log colony forming units (CFU)/mL). The relative inactivation was determined by taking the difference between log CFU(PBS control) and log CFU (treatments). Sample Illumination was provided by LED lights (Heliospectra RX30) emitting about 1000 μmol/m^2/s photosynthetically active radiation (PAR).

[9] = system: Kentucky bluegrass (Poa pratensis); experiment: Kentucky bluegrass tolerance to salt stress (turf quality); format: in vivo; conditions: 170 mM NaCl, 2 salt applications; scale of 1-9 (1=dead, 9=healthy); untreated control 5
Method: Kentucky bluegrass (Poa pratensis) was grown under greenhouse conditions for ˜3 weeks. After 3 weeks, plants were sprayed with formulations and allowed to sit for 24 hours, after which the pots were placed in a 170 mM NaCl solution until the soil was saturated. The salt application was repeated again 7 days later for a total of 2 salt applications. Salinity stress was evaluated based on a turf quality scale of 1-9; where 1=dead, brown turf; 6=minimally acceptable turf quality (based on standards for golf courses or sports fields); and 9=dense, dark green turf (healthy). Data are average of 5 replicates.

[10] = various tetrapyrroles, PVOH 89 kDa, >99% hydrolysis and tannic acid, 72 h simulated sunlight
[11] = various tetrapyrroles, PVOH 89 kDa, >99% hydrolysis and tannic acid, 6 h simulated light
[12] = 1 h, read-out: Inhibition, % (Light)

Compound: Aluminum chlorin e6 [Aluminum Ce6Na3]
- % photosensitizer remaining at 72 h (solid state) [1, 10]: 91.4 ± 5.5%
- % photosensitizer remaining at 6 h (liquid state) [2, 11]: 3.9 ± 0.2%

Compound: C=Cc1c(C)c2cc3nc(c(CC(=O)NCCOP(=O)(O)O)c4[nH]c(cc5nc(cc1[nH]2)C(C)=C5CC)c(C)c4C(=O)O)C(CCC(=O)O)C3C (stereo not drawn) [Ce6-mono-EP^15 amide octylammonium salt]
- inhibition at 10 µM [3, 12]: 58%
- inhibition at 100 µM [3, 12]: 71%
- inhibition at 10 µM ([3]; read-out: Inhibition, % (Dark)): 3%
- inhibition at 100 µM ([3]; read-out: Inhibition, % (Dark)): -5%

Compound: C=CC1=C(C)C2=CC3=NC(=C(CC(=O)[O-])C4=NC(=C(C)C4=C([O-])[O-])C=c4[n-]c(c(C)c4CC)=CC1=N2)C(CCC(=O)[O-])C3C.[H+].[H+].[H+].[Mg+2] (stereo not drawn) [MgChln, Magnesium chlorin e6]
- % photosensitizer remaining at 72 h (solid state) ([1]; MgChln, PVOH 89 kDa, >99% hydrolysis, tannic acid, adjuvants, 72 h simulated sunlight): 41.2 ± 2.9%
- % photosensitizer remaining at 72 h (solid state) ([1]; MgChln, PVOH 89 kDa, >99% hydrolysis, various antioxidants, 72 h simulated sunlight): 31.6 ± 2.3%
- % photosensitizer remaining at 72 h (solid state) ([1]; MgChln, PVOH 89 kDa, >99% hydrolysis, dried film, 72 h light irradiation, mean ± SD): 46.0 ± 1.8%
- % photosensitizer remaining at 72 h (solid state) ([1]; MgChln, PVOH 146 kDa, >99% hydrolysis, 72 h simulated sunlight, mean ± SD): 29.1 ± 2%
- % photosensitizer remaining at 72 h (solid state) ([1]; MgChln, PVOH of varied molecular weight and degree of hydrolysis, 72 h simulated sunlight, mean ± SD): 45.2 ± 7.1%
- % photosensitizer remaining at 72 h (solid state) ([1]; MgChln, various film-forming polymers and tannic acid, 72 h simulated sunlight): 42.4 ± 2.5%
- % Photosensitizer remaining [4]: 62 ± 7%
- % photosensitizer remaining at 6 h (liquid state) ([2]; MgChln, PVOH 89 kDa, >99% hydrolysis, tannic acid, adjuvants, 6 h simulated light): 31.5 ± 5.3%
- % photosensitizer remaining at 6 h (liquid state) ([2]; MgChln, PVOH 89 kDa, >99% hydrolysis, various antioxidants, 6 h simulated light): 20.6 ± 3.9%
- % photosensitizer remaining at 6 h (liquid state) ([2]; MgChln, PVOH 146 kDa, >99% hydrolysis, 6 h simulated sunlight, mean ± SD): 35.2 ± 2.1%
- % photosensitizer remaining at 6 h (liquid state) ([2]; MgChln, PVOH of varied molecular weight and degree of hydrolysis, 6 h simulated sunlight, mean ± SD): 44.6 ± 9.6%
- % photosensitizer remaining at 6 h (liquid state) ([2]; MgChln, various film-forming polymers and tannic acid, 6 h): 27.5 ± 1.8%
- % Disease inhibition ([5]; relative to water control): 45.3%
- Disease severity, % Mean ([5]; sprayed two days prior to inoculation, rated 7 days after, scale 0-100%, control 80): 43.8%
- % inhibition ([6]; applied about 48 h prior to inoculation): 76%
- % Disease inhibition ([6]; sprayed films irradiated 48 h prior to inoculation with fungal spores): 95.1%

Compound: Chlorin e6, trisodium salt [Ce6Na3, reference compound]
- Inhibition, % (Dark) ([7]; dark): 26%
- Inhibition, % (Light) ([7]; light about 180 μmol/m2/s PAR): 74%
- % photosensitizer remaining at 72 h (solid state) [1, 10]: 84.2 ± 7^ %
- Relative Inactivation (log[CFUcontrol mL^−1] − log[CFUtreatment mL^−1]), Dark ([8]; dark control plate): −0.03 ± 0.13 log CFU mL^−1
- Relative Inactivation (log[CFUcontrol mL^−1] − log[CFUtreatment mL^−1]), Light ([8]; illumination 1 hour, about 1000 μmol/m^2/s PAR, where no colonies remained value set to 1 CFU/mL): 0.39 ± 0.29 log CFU mL^−1
- Turf Quality [9]: 6
- Inhibition, % (Dark) ([3]; 10 uM): −4%
- Inhibition, % (Light) ([3]; 10 uM): 53%
- Inhibition, % (Dark) ([3]; 100 uM): 16%
- Inhibition, % (Light) ([3]; 100 uM): 66%
- % photosensitizer remaining at 6 h (liquid state) [2, 11]: 19.4 ± 0.5%
